Experimental data as given in ChEMBL document CHEMBL5625243, “Computational methods to analyze and predict the binding mode of inhibitors targeting both human and mushroom tyrosinase” (Eur J Med Chem, 2023).
Calls of active or inactive are those of the source. The rule behind the calls is not given here.

Columns and labels:
Mushroom tyrosinase [1] = target: T1, Mushroom tyrosinase (Agaricus bisporus, UniProt O42713+Q00024+C7FF04+C7FF05); experiment: Inhibition of mushroom tyrosinase using L-DOPA as substrate by spectrophotometer analysis; assay type: protein assay
Tyrosinase [2] = target: T2, Tyrosinase (Homo sapiens, UniProt P14679); experiment: Binding affinity to human tyrosinase using l-DOPA as substrate assessed as inhibition constant by Michaelis-Menten plot analysis
T2 sequence (P14679 whole entry): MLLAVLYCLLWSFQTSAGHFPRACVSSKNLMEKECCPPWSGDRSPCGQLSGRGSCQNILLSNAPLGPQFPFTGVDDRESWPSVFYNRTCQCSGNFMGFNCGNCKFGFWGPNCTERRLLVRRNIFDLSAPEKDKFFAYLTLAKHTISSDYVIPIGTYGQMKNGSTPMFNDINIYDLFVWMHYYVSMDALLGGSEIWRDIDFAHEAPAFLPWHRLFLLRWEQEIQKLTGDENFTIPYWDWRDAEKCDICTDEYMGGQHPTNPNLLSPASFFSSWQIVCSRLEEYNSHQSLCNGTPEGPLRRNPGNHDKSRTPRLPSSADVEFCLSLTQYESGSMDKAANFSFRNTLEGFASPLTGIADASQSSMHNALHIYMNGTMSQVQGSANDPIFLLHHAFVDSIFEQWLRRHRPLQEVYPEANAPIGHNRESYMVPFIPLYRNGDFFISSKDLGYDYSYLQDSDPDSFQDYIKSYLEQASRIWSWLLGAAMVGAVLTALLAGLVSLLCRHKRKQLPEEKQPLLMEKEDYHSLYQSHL

[3] = target: T3, Tyrosinase (Homo sapiens) (UniProt P14679); experiment: Binding affinity to human Tyrosinase assessed as gibbs free energy change by MM-GBSA method
T3 sequence (whole entry): T2 sequence (P14679 whole entry)

[4] = target: Mushroom tyrosinase (Agaricus bisporus) (UniProt O42713+Q00024+C7FF04+C7FF05); experiment: Binding affinity to mushroom tyrosinase assessed as gibbs free energy change by MM-GBSA method; assay type: protein assay
Tyrosinase [5] = target: T2, Tyrosinase; experiment: Inhibition of human tyrosinase using L-DOPA as substrate by spectrophotometer analysis
Mushroom tyrosinase [6] = target: T1, Mushroom tyrosinase; experiment: Inhibition of mushroom tyrosinase using L-DOPA as substrate; assay type: protein assay
[7] = target: T3, Tyrosinase (Homo sapiens); experiment: Competitive inhibition of human tyrosinase using L-DOPA substrate upto 2.08 uM by Lineweaver-Burk plot analysis

IC50 (Mushroom tyrosinase [1]) [µM]	Ki (Tyrosinase [2]) [µM]	deltaG [3] [kcal/mol]	deltaG [4] [kcal/mol]	IC50 (Tyrosinase [5]) [µM]	IC50 (Mushroom tyrosinase [6]) [µM]	inhibition [7]	SMILES
108	0.92	-14.8	3.34	3.8	–	–	CC(C)C(=O)Nc1nc(-c2ccc(O)cc2O)cs1
–	–	0	-4.54	1100	–	–	O=C(CN1CCC(Cc2ccccc2)CC1)N1CCN(c2ccc(O)cc2)CC1
–	1.02	–	–	5.4	3.52	Active	COc1ccccc1C(=O)N1CCN(c2ccc(O)cc2)CC1
